# Data: ChEMBL document CHEMBL4732067, “Synthesis and evaluation of new compounds bearing 3-(4-aminopiperidin-1-yl)methyl magnolol scaffold as anticancer agents for the treatment of non-small cell lung cancer via targeting autophagy” (Eur J Med Chem, 2021)
# How the values were obtained:
# HCC827 = test: Antiproliferative activity against human HCC827 cells assessed as reduction in cell viability after 72 hrs by MTT assay; assay type: functional, cell-based; conditions: HCC827, 72 h
# NCI-H1975 = test: Antiproliferative activity against human NCI-H1975 cells assessed as reduction in cell viability after 72 hrs by MTT assay; assay type: functional, cell-based; conditions: NCI-H1975, 72 h
# NCI-H460 = test: Antiproliferative activity against human NCI-H460 cells assessed as reduction in cell viability after 72 hrs by MTT assay; assay type: functional, cell-based; conditions: NCI-H460, 72 h
# A549 = test: Antiproliferative activity against human A549 cells expressing wild type EGFR assessed as reduction in cell viability after 72 hrs by MTT assay; assay type: functional, cell-based; conditions: A549, 72 h
# [1] = Antiproliferative activity against human SPCA1 cells expressing wild type EGFR assessed as reduction in cell viability after 72 hrs by MTT assay; assay type: functional, cell-based; conditions: SPCA1, 72 h
# NCI-H1650 = test: Antiproliferative activity against human NCI-H1650 cells expressing EGFR mutant assessed as reduction in cell viability after 72 hrs by MTT assay; assay type: functional, cell-based; conditions: NCI-H1650, 72 h
# NCI-H441 = test: Antiproliferative activity against human NCI-H441 cells […] assessed as reduction in cell viability after 72 hrs by MTT assay; assay type: functional, cell-based; conditions: NCI-H441, 72 h
# [2] = Metabolic stability in human liver microsomes assessed as half life; assay type: ADME, Microsome
# [3] = Metabolic stability in human liver microsomes assessed as intrinsic clearance per gram protein; assay type: ADME, Microsome
# L929 = test: Cytotoxicity against mouse L929 cells; assay type: cell-based
# [4] = Antitumor activity against mouse C26 cells xenografted in BALB/c mouse assessed as tumor growth inhibition at 50 mg/kg, po administered once daily and measured every two days by caliper method relative to control; assay type: functional; conditions: 48 h, read-out: TGI
# [5] = Toxicity in nude BALB/c mouse xenografted with C26 cells assessed as change in body weight at 50 mg/kg, po administered once daily and measured every two days; assay type: organism-based; conditions: in vivo
# [6] = Toxicity in nude BALB/c mouse xenografted with C26 cells assessed as abnormalities in liver size and morphology at 50 mg/kg, po administered once daily; assay type: organism-based; conditions: in vivo
# [7] = Toxicity in nude BALB/c mouse xenografted with C26 cells assessed as abnormalities in kidney size and morphology at 50 mg/kg, po administered once daily; assay type: organism-based; conditions: in vivo
# [8] = Toxicity in nude BALB/c mouse xenografted with C26 cells assessed as abnormalities in lung size and morphology at 50 mg/kg, po administered once daily; assay type: organism-based; conditions: in vivo
# [9] = Toxicity in nude BALB/c mouse xenografted with C26 cells assessed as abnormalities in heart size and morphology at 50 mg/kg, po administered once daily; assay type: organism-based; conditions: in vivo
SMILES,IC50 (HCC827),IC50 (NCI-H1975),IC50 (NCI-H460),also measured
C=CCc1ccc(OCCCCOC(C)=O)c(-c2cc(CC=C)cc(CN3CCC(N)CC3)c2O)c1,> 20 µM,> 20 µM,> 20 µM,
C=CCc1ccc(O)c(-c2cc(CC=C)ccc2O)c1 [MAGNOLOL],94.7 µM,87.3 µM,95.6 µM,IC50 (A549): 82.4 µM; IC50 [1]: 92.5 µM; IC50 (NCI-H1650): 66.3 µM; IC50 (NCI-H441): 65.8 µM; half-life [2]: 14.7 min; CLint [3]: 94 mL/min/g
C=CCc1ccc(O)c(-c2cc(CC=C)cc(CN3CCC(NC(=O)[C@@H](N)c4ccccc4)CC3)c2O)c1,12.3 µM,15.9 µM,15.8 µM,
C=CCc1ccc(OCC)c(-c2cc(CC=C)cc(CN3CCC(N)CC3)c2OCC)c1,2.12 µM,3.45 µM,3.64 µM,
C=CCc1ccc(OCC)c(-c2cc(CC=C)cc(CN3CCC(N)CC3)c2O)c1,0.94 µM,1.43 µM,1.26 µM,IC50 (A549): 3.05 µM; IC50 [1]: 3.46 µM; IC50 (NCI-H1650): 4.15 µM; IC50 (NCI-H441): 2.98 µM; half-life [2]: 130 min; CLint [3]: 10.7 mL/min/g; IC50 (L929): 1.78 µM
C=CCc1ccc(O)c(-c2cc(CC=C)cc(CN3CC[C@H](O)C3)c2O)c1,> 20 µM,> 20 µM,> 20 µM,
C=CCc1ccc(O)c(-c2cc(CC=C)cc(CN3CCC(NC(=O)CCCN)CC3)c2O)c1,> 20 µM,> 20 µM,> 20 µM,
C=CCc1ccc(OCC)c(-c2cc(CC=C)cc(CN3CCC(NC(=O)[C@@H](N)CO)CC3)c2O)c1,5.42 µM,6.98 µM,6.15 µM,
C=CCc1ccc(OCCO)c(-c2cc(CC=C)cc(CN3CCC(N)CC3)c2O)c1,4.34 µM,6.84 µM,6.16 µM,
C#CCOc1ccc(CC=C)cc1-c1cc(CC=C)cc(CN2CCC(N)CC2)c1O,> 20 µM,> 20 µM,> 20 µM,
C=CCc1ccc(O)c(-c2cc(CC=C)cc(CN3CCC(NC(=O)[C@@H](N)CO)CC3)c2O)c1,6.24 µM,7.38 µM,6.57 µM,
C=CCCCCOc1ccc(CC=C)cc1-c1cc(CC=C)cc(CN2CCC(N)CC2)c1O,4.48 µM,14 µM,6.88 µM,
C=CCc1ccc(OCCC)c(-c2cc(CC=C)cc(CN3CCC(N)CC3)c2O)c1,5.27 µM,4.97 µM,4.85 µM,
C=CCc1ccc(O)c(-c2cc(CC=C)cc(CN3CCC(NC(=O)[C@H](N)c4ccccc4)CC3)c2O)c1,5.89 µM,6.85 µM,6.43 µM,
C=CCc1ccc(O)c(-c2cc(CC=C)cc(CN3CCC[C@@H]3CO)c2O)c1,> 20 µM,> 20 µM,> 20 µM,
C=CCc1ccc(OCC)c(-c2cc(CC=C)cc(CN3CCC(NC(=O)[C@H](N)c4ccccc4)CC3)c2O)c1,1.23 µM,7.31 µM,1.46 µM,
C=CCc1ccc(O)c(-c2cc(CC=C)cc(CN3CCC(NC(=O)[C@@H](N)Cc4ccccc4)CC3)c2O)c1,10.9 µM,11.3 µM,12.5 µM,
C=CCc1ccc(O)c(-c2cc(CC=C)cc(Cn3ccc(N)n3)c2O)c1,16.2 µM,> 20 µM,> 20 µM,
C=CCc1ccc(OCCCCO)c(-c2cc(CC=C)cc(CN3CCC(N)CC3)c2O)c1,7.39 µM,7.43 µM,8.78 µM,
C=CCc1ccc(O)c(-c2cc(CC=C)cc(CN3CCC(NC(=O)[C@H](C)N)CC3)c2O)c1,> 20 µM,> 20 µM,17.3 µM,
C=CCc1ccc(OC(C)C)c(-c2cc(CC=C)cc(CN3CCC(N)CC3)c2OC(C)C)c1,2.05 µM,4.14 µM,2.87 µM,
C=CCc1ccc(O)c(-c2cc(CC=C)cc(CN3CCC(NC(=O)[C@H](N)CC(C)C)CC3)c2O)c1,> 20 µM,> 20 µM,> 20 µM,
C=CCc1ccc(O)c(-c2cc(CC=C)cc(CN3CC[C@H](N)C3)c2O)c1,> 20 µM,> 20 µM,> 20 µM,
C=CCc1ccc(O)c(-c2cc(CC=C)cc(CCN3CCC(N)CC3)c2O)c1,> 20 µM,> 20 µM,> 20 µM,
C=CCc1ccc(OCCCC)c(-c2cc(CC=C)cc(CN3CCC(N)CC3)c2O)c1,9.45 µM,10.4 µM,8.76 µM,

SMILES,IC50 (HCC827),IC50 (NCI-H1975),IC50 (NCI-H460),also measured
C=CCc1ccc(OCCCCCO)c(-c2cc(CC=C)cc(CN3CCC(N)CC3)c2O)c1,8.71 µM,9.65 µM,10.2 µM,
C=CCc1ccc(OCCCCCOC(C)=O)c(-c2cc(CC=C)cc(CN3CCC(N)CC3)c2OCCCCCOC(C)=O)c1,> 20 µM,> 20 µM,> 20 µM,
C=CCc1ccc(O)c(-c2cc(CC=C)cc(CN3CCC(NC(=O)[C@@H](C)N)CC3)c2O)c1,> 20 µM,> 20 µM,> 20 µM,
C=CCc1ccc(OCC2CCCO2)c(-c2cc(CC=C)cc(CN3CCC(N)CC3)c2O)c1 (stereo unspecified),2.44 µM,5.72 µM,2.76 µM,
C=CCc1ccc(OC)c(-c2cc(CC=C)cc(CN3CCC(N)CC3)c2O)c1,3.44 µM,4.1 µM,4.27 µM,
C=CCc1ccc(OC(C)C)c(-c2cc(CC=C)cc(CN3CCC(NC(=O)[C@@H](N)Cc4ccccc4)CC3)c2O)c1,0.85 µM,2.76 µM,1.32 µM,IC50 (A549): 1.22 µM; IC50 [1]: 1.35 µM; IC50 (NCI-H1650): 1.68 µM; IC50 (NCI-H441): 2.04 µM; half-life [2]: 21.7 min; CLint [3]: 63.8 mL/min/g; IC50 (L929): 6.24 µM; inhibition in vivo at 50 mg/kg [4]: 62.4%; Activity [5]: Toxic; Activity [6]: Non-Toxic; Activity [7]: Non-Toxic; Activity [8]: Non-Toxic; Activity [9]: Non-Toxic
C=CCc1ccc(O)c(-c2cc(CC=C)cc(CN3CCC(NC(=O)[C@H]4CCCN4)CC3)c2O)c1,> 20 µM,> 20 µM,> 20 µM,
C=CCc1ccc(O)c(-c2cc(CC=C)cc(CN3CCC(NC(=O)[C@@H]4CCCN4)CC3)c2O)c1,> 20 µM,> 20 µM,> 20 µM,
C=CCc1ccc(O)c(-c2cc(CC=C)cc(Cn3cc(N)cn3)c2O)c1,15.4 µM,> 20 µM,> 20 µM,
C=CCc1ccc(O)c(-c2cc(CC=C)cc(CN3CCC(NC(=O)CCN)CC3)c2O)c1,> 20 µM,> 20 µM,> 20 µM,
C=CCc1ccc(O)c(-c2cc(CC=C)cc(CN3CCC(NC(=O)CCCCCN)CC3)c2O)c1,> 20 µM,> 20 µM,> 20 µM,
C=CCc1ccc(O)c(-c2cc(CC=C)cc(CN3CCC(NC(=O)[C@H](N)Cc4ccccc4)CC3)c2O)c1,4.74 µM,4.08 µM,4.32 µM,
C=CCc1ccc(OC2CCCC2)c(-c2cc(CC=C)cc(CN3CCC(N)CC3)c2O)c1,3.51 µM,6.37 µM,5.85 µM,
C=CCc1ccc(O)c(-c2cc(CC=C)cc(CN3CCC(NC(=O)[C@H](N)CO)CC3)c2O)c1,9.05 µM,10.3 µM,8.32 µM,
C=CCc1ccc(O)c(-c2cc(CC=C)cc(CN3CCC(NC(=O)[C@@H](N)CC(C)C)CC3)c2O)c1,> 20 µM,> 20 µM,> 20 µM,
C=CCc1ccc(O)c(-c2cc(CC=C)cc(CN3CCCC3)c2O)c1,> 20 µM,> 20 µM,> 20 µM,
C=CCc1ccc(O)c(-c2cc(CC=C)cc(CN3CCC(NC(=O)[C@@H](N)CCSC)CC3)c2O)c1,> 20 µM,> 20 µM,> 20 µM,
C=CCc1ccc(OC(C)C)c(-c2cc(CC=C)cc(CN3CCC(NC(=O)[C@@H](N)CO)CC3)c2O)c1,2.85 µM,5.71 µM,2.87 µM,
C=CCc1ccc(OCCCCCC)c(-c2cc(CC=C)cc(CN3CCC(N)CC3)c2O)c1,12.5 µM,12.3 µM,9.46 µM,
C=CCc1ccc(OCCCO)c(-c2cc(CC=C)cc(CN3CCC(N)CC3)c2O)c1,6.29 µM,6.98 µM,6.66 µM,
C=CCc1ccc(O)c(-c2cc(CC=C)cc(CCCN3CCC(N)CC3)c2O)c1,> 20 µM,> 20 µM,> 20 µM,
C=CCc1ccc(OC(C)C)c(-c2cc(CC=C)cc(CN3CCC(NC(=O)[C@H](N)c4ccccc4)CC3)c2O)c1,1.56 µM,4.21 µM,1.73 µM,
C=CCc1ccc(O)c(-c2cc(CC=C)cc(CCCCN3CCC(N)CC3)c2O)c1,> 20 µM,> 20 µM,> 20 µM,
C=CCCOc1ccc(CC=C)cc1-c1cc(CC=C)cc(CN2CCC(N)CC2)c1O,4.3 µM,12.2 µM,6.12 µM,
C=CCc1ccc(O)c(-c2cc(CC=C)cc(CN3CCC(NC(=O)[C@H](N)CCSC)CC3)c2O)c1,> 20 µM,> 20 µM,> 20 µM,
